# Assay results: patent EP3747280A1, “ANTIMICROBIAL COMBINATION FOR USE IN ANIMAL FEEDS” (Lucta, S.A., priority 2019, dated 2020)
# Tests used:
# [1] = in animal feeds, in 20 to 40 days; higher depending on the thermal treatment of feed; cited from earlier work
# Vibrio campbellii = test: MIC assay, positive control; type: cell-based; settings: positive control of the MIC test
# Protocol: It was tested whether the experimental products (i.e. comparative examples 1 and 2, and examples 1 to 3) could inactivate diverse shrimp or fish and shrimp bacterial pathogens when directly interacting under an in vitro setting.
# Bacterial growth was evaluated by visual and optical density.
# [2] = Stability test in an animal feed (GC/FID quantification of the active ingredient in fish feed over storage time); type: physicochemical
# Description: The animal feed used was a commercial fish feed having a 52 wt% of crude protein.
# Two 200 g samples of the commercial feed were taken for the application of each of the mixtures A and B.
# A sterile plastic bag was spread out on a laboratory tray, and 200 g of the commercial feed was deposited on it. With the help of a liquid diffuser bottle, by means of short pulsations, 3 g of the mixture A, previously diluted to 10 wt% in vegetable oil, was applied to the feed.
# The bag was closed and shaken, and the feed additive mixture was spread by manual friction in order to distribute it homogeneously all over the feed. Then, the feed containing the mixture A was put in a plastic container. The same process was carried out with mixture B instead of mixture A.
# Each of these feed samples (200 g) containing mixture A or mixture B were divided into two and put into sterile cans (100 g of feed in each) for the different thermal treatments at room temperature (RT) and freezer temperature (FT).
# Thus, an analytical method by capillary gas chromatography (high separation efficiency) and flame ionization detection (high sensitivity) ([…]) was developed. An Accelerated Solvent Extractor (ASE) extraction was made on the experimental feed samples and residual fats were eliminated from the chromatographic column using backflush.
# In a mortar, about 5 g of the experimental feed sample were exactly weighted. 3 g of Celite 545 were added and mixed. The mixture was put in an ASE extraction cell (22 ml) and the sample was extracted with an 80%/20% hexane/acetone mixture at 100 °C and 1500 psi with 5 successive cycles (heating time 5 min, flush 40%, purge 60s) using an ASE equipment.
# After extraction, enough anhydrous sodium sulfate was added to the extracts to absorb remaining water and solid residues. All the liquid extract was collected in a 50 ml beaker. The sodium sulfate was cleaned from the extraction tubes with some ml of the 80% /20% hexane/acetone mixture and added to the beaker. It was made up with the 80% /20% hexane/acetone mixture and mixed thoroughly. In a 2 ml glass vial to the GC/FID about 1 ml of the extract was taken. When some precipitate appeared, it was centrifuged at 6000 rpm 5 min.
# The same protocol shown above was performed with the experimental feed samples but adding previously 0.2 ml of the 10,000 mg/l standard to 5 g of feed in the ASE extraction cell.
# The standards, the experimental feed sample extract and its corresponding spiked sample extract were injected in the GC/FID equipment, minimum by duplicate, using the chromatographic conditions given above. The quantity spiked to the feed sample was at least the same quantity expected in the feed sample. If the area of the spiked sample didn't double at least the area of the corresponding non spiked sample, a high concentration of standard was used to spike the sample.
# Results were calculated by standard addition method, taking into account the weight of the feed samples extracted and the standard concentrations.
molecule,measurement,setting,value
"O=CC=Cc1ccccc1 [AC, cinnamaldehyde]",losses,[1],30-50%
gentamycin,inhibition at the expected concentration,Vibrio campbellii,4 mg/L
"C(=C\C1OCCO1)/c1ccccc1 [EAAC, cinnamaldehyde ethylene glycol acetal]",Amount of active agent,"[2]; feed containing AC and EAAC 50:50, FT, 7 days",269 mg/kg
same,Amount of active agent,"[2]; feed containing AC and EAAC 50:50, FT, 14 days",220 mg/kg
same,Amount of active agent,"[2]; feed containing AC and EAAC 50:50, FT, 21 days",265 mg/kg
same,Amount of active agent,"[2]; feed containing AC and EAAC 50:50, FT, 28 days",238 mg/kg
same,Amount of active agent,"[2]; feed containing AC and EAAC 50:50, FT, 35 days",197 mg/kg
same,Amount of active agent,"[2]; feed containing AC and EAAC 50:50, FT, 42 days",224 mg/kg
same,Amount of active agent,"[2]; feed containing AC and EAAC 50:50, RT, 7 days",288 mg/kg
same,Amount of active agent,"[2]; feed containing AC and EAAC 50:50, RT, 14 days",236 mg/kg
same,Amount of active agent,"[2]; feed containing AC and EAAC 50:50, RT, 21 days",258 mg/kg
same,Amount of active agent,"[2]; feed containing AC and EAAC 50:50, RT, 28 days",237 mg/kg
same,Amount of active agent,"[2]; feed containing AC and EAAC 50:50, RT, 35 days",191 mg/kg
same,Amount of active agent,"[2]; feed containing AC and EAAC 50:50, RT, 42 days",229 mg/kg
same,Amount of active agent,"[2]; feed containing a mixture of AC and EAAC, molar ratio 50:50, stored at freezer temperature (FT), 0 days",264 mg/kg
same,Amount of active agent,"[2]; feed containing a mixture of AC and EAAC, molar ratio 50:50, stored at room temperature (RT), 0 days",264 mg/kg
